Measured values from the NIST ThermoML archive (doi:10.1016/j.jct.2010.06.009).

Test: activity coefficient (dimensionless); of the first substance listed, at infinite dilution; xn = mol fraction of the nth substance listed
Conditions: 101 kPa, Liquid, Chromatography, x1 = 0

Cc1ccccc1C [1,2-dimethylbenzene] + CCCCC[n+]1ccccc1.O=S(=O)([N-]S(=O)(=O)C(F)(F)F)C(F)(F)F
Conditions	activity coefficient
303.1 K	1.57
312.8 K	1.61
323.4 K	1.63
333.4 K	1.65
343.3 K	1.66
353.5 K	1.69

Cc1ccccc1C [1,2-dimethylbenzene] + CCCC[n+]1ccccc1.O=S(=O)([N-]S(=O)(=O)C(F)(F)F)C(F)(F)F
Conditions	activity coefficient
302.8 K	2.22
312.5 K	2.25
323.3 K	2.26
333.3 K	2.28
343.2 K	2.28
353.2 K	2.3

Cc1ccccc1C [1,2-dimethylbenzene] + CC[n+]1ccccc1.O=S(=O)([N-]S(=O)(=O)C(F)(F)F)C(F)(F)F
Conditions	activity coefficient
303.1 K	2.66
313.2 K	2.67
323.3 K	2.68
333.1 K	2.7
343.1 K	2.7
353.1 K	2.71

Cc1cccc(C)c1 [1,3-dimethylbenzene] + CCCCC[n+]1ccccc1.O=S(=O)([N-]S(=O)(=O)C(F)(F)F)C(F)(F)F
Conditions	activity coefficient
303 K	1.76
312.8 K	1.8
323.5 K	1.81
333.4 K	1.84
343.3 K	1.87
353.3 K	1.91

Cc1cccc(C)c1 [1,3-dimethylbenzene] + CCCC[n+]1ccccc1.O=S(=O)([N-]S(=O)(=O)C(F)(F)F)C(F)(F)F
Conditions	activity coefficient
302.8 K	2.47
312.5 K	2.49
323.3 K	2.5
333.3 K	2.51
343.1 K	2.52
353.3 K	2.53

Cc1cccc(C)c1 [1,3-dimethylbenzene] + CC[n+]1ccccc1.O=S(=O)([N-]S(=O)(=O)C(F)(F)F)C(F)(F)F
Conditions	activity coefficient
302.8 K	3.07
313.2 K	3.09
323.2 K	3.1
333.1 K	3.11
343 K	3.12
353.1 K	3.13

Cc1ccc(C)cc1 [1,4-dimethylbenzene] + CCCCC[n+]1ccccc1.O=S(=O)([N-]S(=O)(=O)C(F)(F)F)C(F)(F)F
Conditions	activity coefficient
303.1 K	1.74
312.7 K	1.79
323.5 K	1.81
333.4 K	1.84
343.3 K	1.87
353.3 K	1.91

Cc1ccc(C)cc1 [1,4-dimethylbenzene] + CCCC[n+]1ccccc1.O=S(=O)([N-]S(=O)(=O)C(F)(F)F)C(F)(F)F
Conditions	activity coefficient
302.8 K	2.45
312.5 K	2.48
323.3 K	2.49
333.3 K	2.52
343.1 K	2.54
353.3 K	2.54

Cc1ccc(C)cc1 [1,4-dimethylbenzene] + CC[n+]1ccccc1.O=S(=O)([N-]S(=O)(=O)C(F)(F)F)C(F)(F)F
Conditions	activity coefficient
302.6 K	3.04
313.3 K	3.05
323.2 K	3.07
333.1 K	3.08
343 K	3.09
353.1 K	3.11

C=CCCCCCCCC [1-decene] + CCCCC[n+]1ccccc1.O=S(=O)([N-]S(=O)(=O)C(F)(F)F)C(F)(F)F
Conditions	activity coefficient
303.1 K	26.4
312.6 K	25.1
322.6 K	23.8
333.4 K	22.1
343.4 K	20.6
353.4 K	19.3

C=CCCCCCCCC [1-decene] + CCCC[n+]1ccccc1.O=S(=O)([N-]S(=O)(=O)C(F)(F)F)C(F)(F)F
Conditions	activity coefficient
302.5 K	46.7
313.2 K	40.1
322.8 K	39.6
332.8 K	34.6
342.9 K	31.2
353 K	28.1

C=CCCCCCCCC [1-decene] + CC[n+]1ccccc1.O=S(=O)([N-]S(=O)(=O)C(F)(F)F)C(F)(F)F
Conditions	activity coefficient
302.9 K	85.8
313.2 K	77.2
323.2 K	70
332.8 K	62.7
342.9 K	54.5
353 K	46.9

C#CCCCCC [1-heptyne] + CCCCC[n+]1ccccc1.O=S(=O)([N-]S(=O)(=O)C(F)(F)F)C(F)(F)F
Conditions	activity coefficient
302.8 K	4.17
313.6 K	4
323.4 K	3.87
333.3 K	3.74
343.3 K	3.58
353.3 K	3.42

C#CCCCCC [1-heptyne] + CCCC[n+]1ccccc1.O=S(=O)([N-]S(=O)(=O)C(F)(F)F)C(F)(F)F
Conditions	activity coefficient
302.8 K	5.63
313.3 K	5.49
323.2 K	5.29
333.1 K	5.03
343.1 K	4.79
353.1 K	4.58

C#CCCCCC [1-heptyne] + CC[n+]1ccccc1.O=S(=O)([N-]S(=O)(=O)C(F)(F)F)C(F)(F)F
Conditions	activity coefficient
302.5 K	8.41
313.2 K	7.96
323 K	7.5
333 K	7.06
342.9 K	6.53
353 K	5.92

C#CCCCC [1-hexyne] + CCCCC[n+]1ccccc1.O=S(=O)([N-]S(=O)(=O)C(F)(F)F)C(F)(F)F
Conditions	activity coefficient
302.8 K	2.92
313.6 K	2.82
323.4 K	2.66
333.3 K	2.53
343.3 K	2.42
353.3 K	2.29

C#CCCCC [1-hexyne] + CCCC[n+]1ccccc1.O=S(=O)([N-]S(=O)(=O)C(F)(F)F)C(F)(F)F
Conditions	activity coefficient
303.5 K	3.92
313.3 K	3.72
323.2 K	3.5
333.1 K	3.29
343.1 K	3.04
353.1 K	2.82

C#CCCCC [1-hexyne] + CC[n+]1ccccc1.O=S(=O)([N-]S(=O)(=O)C(F)(F)F)C(F)(F)F
Conditions	activity coefficient
302.5 K	5.26
313.2 K	4.95
323 K	4.63
333 K	4.18
342.9 K	3.88
353 K	3.47

C#CCCCCCC [1-octyne] + CCCCC[n+]1ccccc1.O=S(=O)([N-]S(=O)(=O)C(F)(F)F)C(F)(F)F
Conditions	activity coefficient
302.8 K	5.62
313.6 K	5.47
323.4 K	5.34
333.3 K	5.22
343.4 K	5.07
353.3 K	4.94

C#CCCCCCC [1-octyne] + CCCC[n+]1ccccc1.O=S(=O)([N-]S(=O)(=O)C(F)(F)F)C(F)(F)F
Conditions	activity coefficient
302.6 K	8.1
313.4 K	7.82
323.2 K	7.6
333.1 K	7.34
343.1 K	7.05
353.1 K	6.8

C#CCCCCCC [1-octyne] + CC[n+]1ccccc1.O=S(=O)([N-]S(=O)(=O)C(F)(F)F)C(F)(F)F
Conditions	activity coefficient
302.5 K	12.9
313.2 K	12.3
323 K	11.8
333 K	11.1
342.9 K	10.4
353 K	9.74

C#CCCC [1-pentyne] + CCCCC[n+]1ccccc1.O=S(=O)([N-]S(=O)(=O)C(F)(F)F)C(F)(F)F
Conditions	activity coefficient
302.8 K	2.01
313.5 K	1.88
323.4 K	1.75
333.3 K	1.62
343.2 K	1.5
353.4 K	1.39

C#CCCC [1-pentyne] + CCCC[n+]1ccccc1.O=S(=O)([N-]S(=O)(=O)C(F)(F)F)C(F)(F)F
Conditions	activity coefficient
302.2 K	2.67
313.4 K	2.4
323.2 K	2.23
333.1 K	2.04
343 K	1.88
353.1 K	1.68

C#CCCC [1-pentyne] + CC[n+]1ccccc1.O=S(=O)([N-]S(=O)(=O)C(F)(F)F)C(F)(F)F
Conditions	activity coefficient
302.5 K	3.2
313.2 K	3
323 K	2.73
333 K	2.52
342.9 K	2.23
353.1 K	2.03

c1ccccc1 [benzene] + CCCCC[n+]1ccccc1.O=S(=O)([N-]S(=O)(=O)C(F)(F)F)C(F)(F)F
Conditions	activity coefficient
303.2 K	0.98
312.6 K	0.99
323.2 K	1.01
333.1 K	1.02
343.3 K	1.03
353.5 K	1.04

c1ccccc1 [benzene] + CCCC[n+]1ccccc1.O=S(=O)([N-]S(=O)(=O)C(F)(F)F)C(F)(F)F
Conditions	activity coefficient
302.8 K	1.33
312.6 K	1.34
323.2 K	1.35
333.2 K	1.35
343.1 K	1.35
353.3 K	1.36

c1ccccc1 [benzene] + CC[n+]1ccccc1.O=S(=O)([N-]S(=O)(=O)C(F)(F)F)C(F)(F)F
Conditions	activity coefficient
302.6 K	1.5
313 K	1.49
323.2 K	1.47
333.1 K	1.43
343 K	1.39
353.1 K	1.36

C1CCCCC1 [cyclohexane] + CCCCC[n+]1ccccc1.O=S(=O)([N-]S(=O)(=O)C(F)(F)F)C(F)(F)F
Conditions	activity coefficient
303.2 K	7.35
312.7 K	6.67
323.4 K	5.91
333.3 K	5.3
343.3 K	4.66
353.3 K	4.06

C1CCCCC1 [cyclohexane] + CCCC[n+]1ccccc1.O=S(=O)([N-]S(=O)(=O)C(F)(F)F)C(F)(F)F
Conditions	activity coefficient
302.9 K	9.66
312.4 K	8.64
323.2 K	7.88
333.2 K	6.7
343.3 K	5.61
353.4 K	4.72

C1CCCCC1 [cyclohexane] + CC[n+]1ccccc1.O=S(=O)([N-]S(=O)(=O)C(F)(F)F)C(F)(F)F
Conditions	activity coefficient
302.8 K	11.4
313.3 K	9.56
323.1 K	8.04
333 K	6.76
342.9 K	5.63
353 K	4.65

CCO [ethanol] + CCCCC[n+]1ccccc1.O=S(=O)([N-]S(=O)(=O)C(F)(F)F)C(F)(F)F
Conditions	activity coefficient
302.8 K	2.09
313.5 K	1.86
323.4 K	1.67
333.3 K	1.5
343.2 K	1.35
353.4 K	1.19

CCO [ethanol] + CCCC[n+]1ccccc1.O=S(=O)([N-]S(=O)(=O)C(F)(F)F)C(F)(F)F
Conditions	activity coefficient
302.5 K	2.67
313.4 K	2.26
323.1 K	2.02
333.1 K	1.8
343.1 K	1.61
352.9 K	1.45

CCO [ethanol] + CC[n+]1ccccc1.O=S(=O)([N-]S(=O)(=O)C(F)(F)F)C(F)(F)F
Conditions	activity coefficient
302.5 K	2.63
313.1 K	2.36
323 K	2.13
332.9 K	1.91
342.9 K	1.71
353 K	1.54

CCc1ccccc1 [ethylbenzene] + CCCCC[n+]1ccccc1.O=S(=O)([N-]S(=O)(=O)C(F)(F)F)C(F)(F)F
Conditions	activity coefficient
303.1 K	1.93
312.8 K	1.95
323.4 K	1.96
333.4 K	1.98
343.3 K	1.99
353.5 K	2
